The values below come from the METLIN SMRT retention time set (Domingo-Almenara et al. 2019).

The nature of the series: gradient 5% acetonitrile 3 min, to 50% in 2 min, to 85% in 15 min, held 3 min, 100 µL/min. The conditions noted are these: column: Zorbax Extend-C18 2.1 x 50 mm; eluents: water / acetonitrile, 0.1% formic acid. Summed up: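 Retention times of pure standards were taken from adduct peaks that were selected by computer and manually inspected. Over 3 months, mixtures of ~100 molecules were run by HPLC–quadrupole time-of-flight mass spectrometry in positive and negative ionization mode. The Zorbax Extend-C18 column (2.1 × 50 mm, 1.8 μm) ran at 100 μL/min in water and acetonitrile, each containing 0.1% formic acid, with 40 μL dead volume and 900 μL dwell volume.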
The compound `CCc1ccc(-c2nc(C3CC(=O)N(c4ccc(C)cc4)C3)no2)cc1` (stereo not drawn) had an RP-LC retention time of 1110 s. Consider `CCCCN1CCCC1CNC(=O)c1cc(C#N)c2ccccc2c1OC` (stereo not drawn), for which the RP-LC retention time amounted to 781 s. In turn, `COc1ccc(NC(=O)CCc2cccc3[nH]ccc23)cc1OC` registered an RP-LC retention time of 755 s. With `O=C(Cn1cnc2ccccc21)NCCNc1cc(-n2cccn2)ncn1`, the RP-LC retention time was 550 s. Consider `COc1ccc(-c2nc(C)cc3nn(CC(=O)Nc4cc(C)cc(C)c4)c(=O)n23)cc1`, for which the RP-LC retention time is 906 s.

For the compound `O=C(Cn1nc2c(SC3CCCCC3)nccn2c1=O)NC1CCCC1`, the RP-LC retention time came out at 939 s. `CC1CCCCN1CCNC(=O)CN1CCc2ccccc2C1C(=O)N1CCCCC1` (stereo not drawn): the RP-LC retention time was 617 s. As for `CC(C)n1cc(S(=O)(=O)NCc2cccs2)c2cccnc21`, the RP-LC retention time was 833 s. `COC(=O)C1=CN(C2CC2)c2cc(N3CCc4ccccc4C3)c(F)cc2S1(=O)=O` had an RP-LC retention time of 977 s. As for `COc1ccc(-c2cc3c(=O)n(Cc4noc(CN5CCCC(C)C5)n4)ccn3n2)cc1` (stereo not drawn), the RP-LC retention time was found to be 675 s. Regarding `CCOC(=O)c1c(C)oc2ncnc(NCC3CCN(Cc4ccccc4F)CC3)c12`, the RP-LC retention time was 694 s. `Cc1cccc(-c2nc3ccccn3c2NC(=O)Nc2cc(F)ccc2F)c1`: the RP-LC retention time is 715 s. The result for `COCCCN1CN=C(Nc2nc(C)c3ccccc3n2)NC1` reads 626 s; that for `Cc1cc(C)n(CCN2CCN(C(=O)Cn3cnc4ccccc43)CC2)n1`, 512 s; that for `O=C(c1ccc(F)c(Cl)c1)N1CCCC(c2nnc(-c3ccccc3)o2)C1` (stereo not drawn), 913 s.

Compound `Cc1ccc(-c2nnc(Cc3nc(-c4ccc(C(F)(F)F)cc4)no3)o2)cc1F` yielded an RP-LC retention time of 1180 s.

Consider `CCCc1ccc(S(=O)(=O)N2CCC(F)(c3nc(CC(C)C)no3)CC2)cc1`, for which the RP-LC retention time turned out to be 1330 s. The result for `CCN1CCn2cc(S(=O)(=O)Nc3cccc(Cl)c3)cc2C1=O` reads 728 s; that for `CCCN1CCN(C(=O)C2CC(=O)N(c3ccc4c(c3)CCN4C(=O)CC)C2)CC1` (stereo not drawn), 566 s. `CSc1ccc(CNC(=O)c2ccc3ccnc(N4CCN(C(=O)c5ccco5)CC4)c3c2)cc1` came in with an RP-LC retention time of 732 s. As for `Cc1cc(C)cc(NC(=O)C2CCN(S(=O)(=O)c3ccc4c(c3)sc(=O)n4C(C)C)CC2)c1`, the RP-LC retention time turned out to be 1070 s. `COCC(=O)N(CC(=O)N1CCc2sccc2C1COc1ccc(F)cc1)C(C)(C)C` (stereo not drawn) registered an RP-LC retention time of 906 s. Compound `CCN1C(=O)c2cc(S(=O)(=O)Nc3ccc(C)cc3F)ccc2Oc2cccnc21` came in with an RP-LC retention time of 1030 s.

With `COc1ccc(CNC2=NCCNC23CCN(S(=O)(=O)c2cc(C)ccc2C)CC3)cc1`, the RP-LC retention time turned out to be 754 s. Consider `CCOC(=O)C1=C(CN2CCN(C(C)CC)CC2)NC(=O)NC1c1ccc(Cl)cc1` (stereo not drawn), for which the RP-LC retention time was found to be 663 s.

For the compound `NC(=O)C1CCN(CC(=O)Nc2nc(-c3ccccc3)cs2)CC1`, the RP-LC retention time turned out to be 588 s. For `Cn1nnnc1SCC(=O)Nc1nc(-c2ccccc2)c(-c2ccccc2)o1`, the RP-LC retention time came to 888 s. In turn, `O=C1[C@H]2CN(Cc3cccc(OC(F)(F)F)c3)C[C@H]2C(=O)N1Cc1ccc2c(c1)OCO2` had an RP-LC retention time of 969 s. `CCCc1noc(-c2ccnc(-n3ncc(C(=O)NC4CC4)c3C)c2)n1` had an RP-LC retention time of 839 s.

Compound `CC(=O)N1CCC(C(=O)N2CCC3(CC2)NCc2ccccc2-n2ccnc23)CC1` yielded an RP-LC retention time of 564 s.

Compound `COc1ccc(CC(=O)N2CCC3(CC2)NC(=O)c2ccccc2N3C)cc1OC` yielded an RP-LC retention time of 711 s.

In turn, `N#Cc1ccc(C(=O)NCc2[nH]nc3ccccc23)cc1` showed an RP-LC retention time of 699 s. As to `Cc1ccc(CNC(=O)C2CCN(c3ncccc3S(=O)(=O)N3CCCCC3)CC2)cc1`, the RP-LC retention time is 960 s. `Cc1noc(C)c1-c1ccc(S(=O)(=O)NCc2ccco2)cc1` registered an RP-LC retention time of 842 s.

`COc1cc(CC(=O)N2CCN(c3cc(C(C)C)n4cnnc4n3)CC2)cc(OC)c1` gave an RP-LC retention time of 635 s. `Cc1ccccc1N1CCN(C(=O)Cn2c(=O)c3nnc(C)n3c3ncccc32)CC1` registered an RP-LC retention time of 793 s. Under `Cc1cccc(NC(=O)N(C)CCc2noc(COc3ccccc3F)n2)c1C` stands 823 s; under `CCC(=O)N(C1CCOCC1)C1CCN(S(=O)(=O)c2cccc(C)c2)CC1`, 836 s; under `CC(CNC(=O)C1CCN(C(=O)c2ncn3c2COC(c2ccc(F)cc2)C3)CC1)c1ccccc1` (stereo not drawn), 754 s.

`CCOc1ccc(S(=O)(=O)N2CCCC(C(=O)NCc3cccnc3)C2)cc1` (stereo not drawn) had an RP-LC retention time of 650 s. Regarding `O=C(CC1CCCCN1S(=O)(=O)c1ccc(Cl)cc1)NCc1cccnc1` (stereo not drawn), the RP-LC retention time is 568 s. `CCCCNC(=O)C1CCN(C(=O)c2cc3ccsc3n2Cc2cccc(OC)c2)CC1`: the RP-LC retention time is 948 s. The result for `CCC(=O)N1CCc2cc(C)c(S(=O)(=O)NCc3ccco3)cc21` reads 664 s; that for `C=CCn1c(SCC(=O)c2cc(C)n(CCOC)c2C)nc2sc(C)c(C)c2c1=O`, 1140 s. Compound `COc1ccc(-c2cc3c(=O)n(Cc4nc(-c5ccccc5OC)oc4C)ccn3n2)cc1OC` gave an RP-LC retention time of 990 s. `Cc1ccc(C(=O)Nc2cccn3nc(C(C)C)nc23)cc1C` registered an RP-LC retention time of 1030 s.

Compound `Cc1ccc(-c2noc(-c3ccc(=O)n(CC(=O)OC(C)C)n3)n2)cc1` returned an RP-LC retention time of 1050 s. With `COc1cccc(S(=O)(=O)N2C[C@@H](F)C[C@H]2C(=O)N2CCc3ccccc3C2)c1`, the RP-LC retention time amounted to 904 s. Under `Cc1nc(N(C)C)cc(N2CCN(C(=O)c3cccc(Br)c3)CC2)n1` stands 656 s.

Turning to `CC(=O)Nc1ccc(-c2noc(C3CCN(C(=O)C4CC4)CC3)n2)cc1`, the RP-LC retention time worked out at 689 s. For the compound `CCN1C(=O)c2cc(S(=O)(=O)Nc3ccc(Cl)cc3)ccc2Oc2cccnc21`, the RP-LC retention time amounted to 1050 s. For the compound `O=C(Nc1ccc2c(c1)CCCN2C(=O)C1CC1)c1nc2ccccc2s1`, the RP-LC retention time amounted to 968 s. Take `COc1ccc(C2CC(=O)N(c3ccc(C)cc3C)C(=O)C2)cc1OC`: the RP-LC retention time is 889 s.

The compound `CCC(C)N(CC(=O)N1CCc2sccc2C1COc1ccc(Cl)cc1)C(=O)COC` (stereo not drawn) had an RP-LC retention time of 955 s. Compound `COc1cccc(NC(=O)C2CCCN(c3ncnc4c3nc3n4CCCCC3)C2)c1` (stereo not drawn) yielded an RP-LC retention time of 781 s. `CCOC(=O)C1CCN(C(=O)CN2C(=O)COc3ccc(C(=O)N(CC)CC)cc32)CC1` returned an RP-LC retention time of 700 s. As for `Cc1cc(-c2ccc(S(=O)(=O)N3CCC(C(=O)NCC4CCCCC4)CC3)o2)n[nH]1`, the RP-LC retention time amounted to 840 s. With `O=C(CN1CC=C(c2cnn(-c3ccc(F)cc3)c2)CC1)NCc1ccco1`, the RP-LC retention time was 658 s.

`Cc1ccc(Cc2nnc(NC(=O)c3cc(C)n(C(C)C)n3)o2)cc1` returned an RP-LC retention time of 802 s.

As for `Cc1c([C@@H](C)C2NC[C@@H](C)C[C@H]2O)ccc2c1C[C@@H]1[C@H]2CC=C2C[C@@H](O)CC[C@@]21C` (stereo partly drawn), the RP-LC retention time was found to be 749 s.

For the compound `Cc1ccc2nc(C(=O)NC3CCN(Cc4ccccc4)CC3)cn2c1`, the RP-LC retention time is 560 s.

With `CCn1ccc2cc(S(=O)(=O)N3CCCN(C(=O)NCc4ccco4)CC3)ccc21`, the RP-LC retention time was 832 s. With `COCC(C)NC(=O)C(=O)NCc1cccs1` (stereo not drawn), the RP-LC retention time was determined as 658 s. For `Cc1nn(-c2ccc(N3CCCCC3)nn2)c(C)c1CCC(=O)NCc1ccco1`, the RP-LC retention time was 667 s. The result for `Cc1cccc(Nc2c(-c3ccc(N4CCOCC4)cc3)nc3cnccn23)c1C` reads 867 s; that for `CCOc1ccc(S(=O)(=O)N(CC(=O)N2CCNCC2)CC2CCCO2)cc1` (stereo not drawn), 626 s; that for `Cn1cnnc1C1CCCCN1C(=O)COc1ccc(F)c(F)c1` (stereo not drawn), 682 s.

For the compound `COc1cccc(-c2cc(C(=O)N3CCN(c4ncccn4)CC3)n(C)n2)c1`, the RP-LC retention time stood at 754 s. `Cc1ccc(NC(=O)C2CC(=O)N(c3n[nH]c4cccc(F)c34)C2)cc1C` (stereo not drawn) had an RP-LC retention time of 831 s. The result for `CCCN(C(=O)CC(=O)OC)c1nc(-c2ccc(Br)cc2)cs1` reads 1240 s. Compound `CCn1cc(-c2nc(CC(=O)NCc3ccccc3Cl)cs2)c2cccnc21` showed an RP-LC retention time of 924 s. The compound `Cc1sc2ccn(Cc3ccc(F)cc3)c(=O)c2c1C(=O)N1CCOCC1` displayed an RP-LC retention time of 713 s. The compound `CC(C)NC(=O)c1cc2c(n(-c3ccc(C(F)(F)F)cc3)c1=O)CCCC2=O` displayed an RP-LC retention time of 883 s. The result for `CN(C)c1ccc(-c2nc3cnccn3c2Nc2ccc(F)cc2)cc1` reads 787 s. Compound `CCOC(=O)c1ccccc1NC(=O)CSc1cc(N2CCCC2)ncn1` displayed an RP-LC retention time of 914 s.

Compound `O=C(Nc1ccc(CCc2nc3ccccc3n2-c2ccccc2)cc1)c1cnccn1` gave an RP-LC retention time of 694 s. `O=C(c1[nH]c2ccccc2c1Sc1ccc(Cl)cc1)N1CCN(c2ccccn2)CC1`: the RP-LC retention time came out at 825 s. The compound `O=C(NCc1ccc(Cl)cc1)c1ccc2ccnc(N3CCN(C(=O)c4ccco4)CC3)c2c1` registered an RP-LC retention time of 739 s.
